Measurements published in US20220257774A1, “AROMATIC AMINE AR AHD BET TARGETING PROTEIN DEGRADATION CHIMERA COMPOUND AND USE” (HINOVA PHARMACEUTICALS INC., priority 2019, published 2022).
Read-outs that look alike come from different tables or passages of the source.

How the values were obtained:
[1] = test system: LNCaP/AR cells; test: Inhibition of the proliferation of LNCap/AR cells (CCK-8); type: cell-based; details: read-out: LNCap/AR IC50
In short: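 Proliferation was read by CCK-8 (OD 450 nm, 1 h) after six days of compound exposure. Cells were seeded at 1000 per well overnight, then dosed in duplicate over nine 3-fold steps with a top final concentration of 10 μM in 0.1% DMSO; IC50 was fitted from inhibition curves.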

[2] = test system: 22RV1 cells; test: Inhibition of the proliferation of drug-resistant prostate cancer cell 22RV1 (CCK-8); type: cell-based; details: 22RV1 cells (enzalutamide-resistant), same method
Method: (1) Experimental materials and instruments: LNCaP/AR cell line and 22RV1 cell line (provided by Sichuan Kangcheng Biotechnology Co., Ltd.) Fetal bovine serum FBS (Gibco, Cat. No. 10099-141) 0.01M PBS (Biosharp, Cat. No. 162262) RIPM1640 medium (Hyclone, Cat. No. 308090.01) Penicillin-Streptomycin (Hyclone, Cat. No. SV30010) Cell counting kit-8 (Signalway Antibody, Cat. No. CP002) DMSO (Sigma, Cat. No. D5879) Centrifuge Tube, 15 ml (Excell Bio, Cat. No. CS015-0001) Cell Culture Dish, (Excell Bio, Cat. No. CS016-0128) 96-well cell culture plate (Corning, Cat. No. 3599) Microplate reader (Thermo Multiskan MK3 type)
a. Preparation of Buffer Cell culture medium: RIPM1640 medium, 10% FBS, 1% Pen Strep: PBS buffer: PBS powder was dissolved in 2 L of ultrapure water and sterilized. b. Experimental Procedures 1) LNCaP/AR cells were subcultured in cell culture media, and then the cells in good growth condition were seeded in a 96-well plate at 80 μL/well (1000 cells/well), and cultured overnight in a 37° C., 5% CO2 cell incubator. 2) The drug was prepared into a 10 mM stock solution with dimethyl sulfoxide (DMSO). Prior to use, the stock solution was diluted in a ratio of […] with DMSO, and then diluted at a 3-fold gradient to obtain 9 serial concentrations. Then, each concentration of compound was further diluted in a ratio of 1:200 with the culture medium (to ensure that the DMSO concentration in the culture system was 0.1%), and two wells were set for each concentration. 20 μL of the diluted compound solution was added to the well of the cell culture (with a final concentration of 10 μM, 3.3 μM, 1.1 μM . . . ), and then the plate was gently tapped to thoroughly mix. In addition, the experiment included 3 negative control wells only containing cells and 3 blank control wells only containing culture medium (6 wells were each added with DMSO diluted in a ratio of 1:200 with 20 μL of culture medium). c. Result Detection: 1) After culturing for 6 days, 10 μL of CCK-8 was added to each well, and the plate was further incubated for 1 h in a 37° C., 5% CO2 cell incubator. 2) The absorbance (OD value) was measured at 450 nm with a multifunctional microplate reader. 3) The data was analyzed by the Dose-response-inhibition equation in the software GraphPad Prism5, and the IC50 value was obtained. 2. Biological assay of the inhibition on the proliferation of other drug-resistant prostate cancer cells
The same test method was used to determine the inhibitory activity of the compound according to the present invention against drug-resistant prostate cancer cell 22RV1.

[3] = 144 h, LNCaP/AR cells, 6 days culture, CCK-8
[4] = LNCaP/AR cells, 6 days culture, CCK-8

SMILES	IC50 [1, 3] [nM]	IC50 ([2]; Homo sapiens) [nM]	IC50 ([1]; LNCaP/AR, 144 h) [nM]	IC50 [1, 4] [nM]	IC50 [2] [nM]
Cc1ccc(-c2c(C)noc2C)cc1N(CC1CC(Nc2cc3c(cc2F)CN(C2CCC(=O)NC2=O)C3=O)C1)c1ccc(C2(C#N)CC2)cc1 (stereo not drawn) [Compound 38]	> 2000	501 to 2000	–	–	–
Cc1ccc(-c2c(C)noc2C)cc1N(CCCCNc1cc2c(cc1F)C(=O)N(C1CCC(=O)NC1=O)C2=O)c1ccc(C2(C#N)CC2)cc1 (stereo not drawn) [Compound 40]	501 to 2000	101 to 500	–	–	–
Cc1ccc(-c2c(C)noc2C)cc1N(CCCCNc1ccc2c(c1)C(=O)N(C1CCC(=O)NC1=O)C2=O)c1ccc(C2(C#N)CC2)cc1 (stereo not drawn) [Compound 41, 1-(4-((5-(3,5-Dimethylisoxazol-4-yl)-2-methylphenyl)(4-((2-(2,6-dioxopiperidin-3-yl)-1,3-dioxoisoindolin-5-yl)amino)butyl)amino)phenyl)cyclopropane-1-nitrile]	101 to 500	< 100	–	–	–
Cc1ccc(-c2c(C)noc2C)cc1N(CCCCNc1cc2c(cc1F)CN(C1CCC(=O)NC1=O)C2=O)c1ccc(C2(C#N)CC2)cc1 (stereo not drawn) [Compound 42, 1-(4-((5-(3,5-Dimethylisoxazol-4-yl)-2-methylphenyl)(4-((2-(2,6-dioxopiperidin-3-yl)-6-fluoro-3-oxoisoindolin-5-yl)amino)butyl)amino)phenyl)cyclopropane-1-nitrile]	101 to 500	501 to 2000	–	–	–
Cc1ccc(-c2c(C)n[nH]c2C)cc1N(CCCCCOCC(=O)N[C@H](C(=O)N1C[C@H](O)C[C@H]1C(=O)N[C@@H](C)c1ccc(-c2scnc2C)cc1)C(C)(C)C)c1ccc(C#N)c(Cl)c1 [Compound 44, (2S,4R)-1-((S)-2-(2-((5-((3-chloro-4-cyanophenyl)(5-(3,5-dimethyl-1H-pyrazol-4-yl)-2-methylphenyl)amino)pentyl)oxy)acetylamino)-3,3-dimethylbutyryl)-4-hydroxy-N—((S)-1-(4-(4-methylthiazol-5-yl)phenyl)ethyl)pyrrolidinyl-2-formamide]	–	> 2000	101 to 500	–	–
CC(=O)O[C@@H]1C[C@@H](C(=O)N[C@@H](C)c2ccc(-c3scnc3C)cc2)N(C(=O)[C@@H](NC(=O)COCCCCCN(c2ccc(C#N)c(Cl)c2)c2cc(-c3c(C)n[nH]c3C)ccc2C)C(C)(C)C)C1 [Compound 45]	–	> 2000	501 to 2000	–	–
Cc1ccc(-c2c(C)noc2C)cc1N(CCCCCCNc1ccc2c(c1)CN(C1CCC(=O)NC1=O)C2=O)c1ccc(C2(C#N)CC2)cc1 (stereo not drawn) [Compound 61, 1-(4-((5-(3,5-dimethylisoxazol-4-yl)-2-methylphenyl)(6-((2-(2,6-dioxopiperidin-3-yl)-1-oxoisoindolin-5-yl)amino)hexyl)amino)phenyl)cyclopropane-1-nitrile]	< 100	< 100	–	–	–
Cc1ccc(-c2c(C)noc2C)cc1N(CCCCNc1ccc2c(c1)CN(C1CCC(=O)NC1=O)C2=O)c1ccc(C2(C#N)CC2)cc1 (stereo not drawn) [Compound 62, 1-(4-((5-(3,5-dimethylisoxazol-4-yl)-2-methylphenyl)(4-((2-(2,6-dioxopiperidin-3-yl)-1-oxoisoindolin-5-yl)amino)butyl)amino)phenyl)cyclopropane-1-nitrile]	< 100	< 100	–	–	–
Cc1ccc(-c2c(C)noc2C)cc1N(CCN1CCN(c2ccc3c(c2)C(=O)N(C2CCC(=O)NC2=O)C3=O)CC1)c1ccc(C2(C#N)CC2)cc1 (stereo not drawn) [Compound 64, 1-(4-((5-(3,5-Dimethylisoxazol-4-yl)-2-methylphenyl)(2-(4-(2-(2,6-dioxopiperidin-3-yl)-1,3-dioxoisoindolin-5-yl)piperazin-1-yl)ethyl)amino)phenyl)cyclopropane-1-nitrile]	501 to 2000	< 100	–	–	–
Cc1ccc(-c2c(C)noc2C)cc1N(CCN1CCN(c2ccc3c(c2)CN(C2CCC(=O)NC2=O)C3=O)CC1)c1ccc(C2(C#N)CC2)cc1 (stereo not drawn) [Compound 65, 1-(4-((5-(3,5-dimethylisoxazol-4-yl)-2-methylphenyl)(2-(4-(2-(2,6-dioxopiperidin-3-yl)-1-oxoisoindolin-5-yl)piperazin-1-yl)ethyl)amino)phenyl)cyclopropane-1-nitrile]	501 to 2000	101 to 500	–	–	–
Cc1ccc(-c2c(C)noc2C)cc1N(c1ccc(C2(C#N)CC2)cc1)C1CN(C2CCN(c3ccc4c(c3)C(=O)N(C3CCC(=O)NC3=O)C4=O)CC2)C1 (stereo not drawn) [Compound 66]	101 to 500	< 100	–	–	–
Cc1ccc(-c2c(C)noc2C)cc1N(c1ccc(C2(C#N)CC2)cc1)C1CN(CC2CN(c3ccc4c(c3)C(=O)N(C3CCC(=O)NC3=O)C4=O)C2)C1 (stereo not drawn) [Compound 67, 1-(4-((5-(3,5-dimethylisoxazol-4-yl)-2-methylphenyl)(1-((1-(2-(2,6-dioxopiperidin-3-yl)-1,3-dioxoisoindolin-5-yl)azetidin-3-yl)methyl)azetidine-3-yl)amino)phenyl)cyclopropane-1-carbonitrile]	101 to 500	< 100	–	–	–
Cc1ccc(-c2c(C)noc2C)cc1N(c1ccc(C2(C#N)CC2)cc1)C1CN(C2CC(Nc3cc4c(cc3F)C(=O)N([C@H]3CCC(=O)NC3=O)C4)C2)C1 (stereo partly drawn) [Compound 69, 1-(4-((5-(3,5-dimethylisoxazol-4-yl)-2-methylphenyl)(1-((1 s,3s)-3-((2-(2,6-dioxopiperidin-3-yl)-6-fluoro-1-oxoisoindolin-5-yl)amino)cyclobutyl)azetidin-3-yl)amino)phenyl)cyclopropane-1-nitrile]	–	–	–	> 2000	> 2000
Cc1ccc(-c2c(C)noc2C)cc1N(CC1CN([C@H]2C[C@@H](Nc3cc4c(cc3F)C(=O)N(C3CCC(=O)NC3=O)C4=O)C2)C1)c1ccc(C2(C#N)CC2)cc1 (stereo partly drawn) [Compound 71, 1-(4-((5-(3,5-dimethylisoxazol-4-yl)-2-methylphenyl)((1-((1s,3s)-3-((2-(2,6-dioxopiperidin-3-yl)-6-fluoro-1,3-dioxoisoindolin-5-yl)amino)cyclobutyl)azetidin-3-yl)methyl)amino)phenyl)cyclopropane-1-nitrile]	> 2000	> 2000	–	–	–
Cc1ccc(-c2c(C)noc2C)cc1N(CC1CN([C@H]2C[C@H](Nc3cc4c(cc3F)C(=O)N(C3CCC(=O)NC3=O)C4=O)C2)C1)c1ccc(C2(C#N)CC2)cc1 (stereo partly drawn) [Compound 72, 1-(4-((5-(3,5-dimethylisoxazol-4-yl)-2-methylphenyl][(1-((1r,3r)-3-((2-(2,6-dioxopiperidin-3-yl)-6-fluoro-1,3-dioxoisoindolin-5-yl)amino)cyclobutyl)azetidin-3-yl)methyl)amino)phenyl)cyclopropane-1-nitrile]	> 2000	> 2000	–	–	–
Cc1ccc(-c2c(C)noc2C)cc1N(c1ccc(C2(C#N)CC2)cc1)C1CN(C2CCC(Nc3cc4c(cc3F)C(=O)N(C3CCC(=O)NC3=O)C4=O)CC2)C1 (stereo not drawn) [Compound 73, 1-(4-((5-(3,5-dimethylisoxazol-4-yl)-2-methylphenyl)(1-((1s,4s)-4-((2-(2,6-dioxopiperidin-3-yl)-6-fluoro-1,3-dioxoisoindolin-5-yl)amino)cyclohexyl)azetidin-3-yl)amino)phenyl)cyclopropane-1-nitrile]	–	–	–	> 2000	> 2000
Cc1ccc(-c2c(C)noc2C)cc1N(c1ccc(C2(C#N)CC2)cc1)C1CN([C@H]2CC[C@H](Nc3cc4c(cc3F)C(=O)N(C3CCC(=O)NC3=O)C4=O)CC2)C1 (stereo partly drawn) [Compound 74]	–	–	–	> 2000	> 2000
Cc1ccc(-c2c(C)noc2C)cc1N(CC1CN(C2CCN(c3ccc4c(c3)C(=O)N(C3CCC(=O)NC3=O)C4)CC2)C1)c1ccc(C2(C#N)CC2)cc1 (stereo not drawn) [Compound 75, 1-(4-((5-(3,5-dimethylisoxazol-4-yl)-2-methylphenyl)((1-(1-(2-(2,6-dioxopiperidin-3-yl)-3-oxoisoindolin-5-yl)piperidin-4-yl)azetidin-3-yl)methyl)amino)phenyl)cyclopropane-1-carbonitrile]	> 2000	> 2000	–	–	–
